Measurements published in patent US20120108492A1, “LIGAND-SPECIFIC NON-ANTIBODY COMPOUNDS THAT INHIBIT CR2 ACTIVATION AND METHODS OF USE THEREOF” (The Regents of the University of Colorado, priority 2008, published 2012).
Where a SMILES comes first, the peptide text is derived from it. Bridges are numbered along the chain shown (N, C = ends). Where no end group is shown, it is not given here.

Target: T1, CR2-C3d interaction (Homo sapiens, UniProt P20023)
T1 construct: DNA corresponding to residues 1-133 of wild-type CR2 (SCR1-2) was PCR amplified; made in house; host or cells: E. coli (pMAL-P2X)
T1 sequence (P20023 21-153): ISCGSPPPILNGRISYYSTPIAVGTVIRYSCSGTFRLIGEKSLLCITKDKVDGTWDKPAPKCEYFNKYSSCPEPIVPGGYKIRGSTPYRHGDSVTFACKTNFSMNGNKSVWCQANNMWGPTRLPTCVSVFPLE
Experiment: Peptide competition ELISA, CR2-C3d (bound C3d, solution phase MBP-CR2)
Assay type: binding
Settings: not given

Compound	IC50 [µM]
APAHLSSQ [control]	700
APQALSSQYSRT [C3dp1.1]	70
APQHLSSQ [C3dp1.3]	40
APQHLSSQYSRT [C3dp1]	100
DPKNHVH [C3dcp1.1, DPKNHVH]	95
IATANPRHHSTA [C3dp2.3]	160
ISTSNPRAASTA [C3dp2.1]	150
ISTSNPRH [C3dp2.2]	190
ISTSNPRHHSTA [C3dp2]	450
TRSYQSSLHQPA [C3dp1.2]	70

Same assay, conditions: peptide raised against CR2-EBV gp350

Compound	effect on the CR2-C3d interaction (ligand specificity)
CC(C)C[C@@H]1NC(=O)[C@H](CO)NC(=O)CNC(=O)[C@H](CCC(=O)O)NC(=O)[C@H](CO)NC(=O)[C@@H](N)CSSC[C@@H](C(=O)O)NC(=O)CNC(=O)[C@H](CCCCN)NC1=O [gp350cp1] (H-CSEGSLKGC-OH; disulfide 1-9; N-terminus and C-terminus assumed)	unaffected

Target: T2, CR2-EBV gp350 interaction (Homo sapiens, UniProt P20023)
Experiment: biochemical
Settings: not given

Compound	IC50 [µM]
CC(C)C[C@@H]1NC(=O)[C@H](CO)NC(=O)CNC(=O)[C@H](CCC(=O)O)NC(=O)[C@H](CO)NC(=O)[C@@H](N)CSSC[C@@H](C(=O)O)NC(=O)CNC(=O)[C@H](CCCCN)NC1=O [gp350cp1] (H-CSEGSLKGC-OH; disulfide 1-9; N-terminus and C-terminus assumed)	150

Target: T2, CR2-EBV gp350 interaction
Experiment: not given
Settings: peptides raised against CR2-C3d

Compound	effect on the CR2-EBV gp350 interaction (ligand specificity)
APQHLSSQYSRT [C3dp1]	largely unaffected
